# In PubChem BioAssay (NCI):
#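 Briefly, cells in 96-well plates were exposed to five compound concentrations for 48 h, and endpoints were estimated by linear interpolation. At the TGI there is no net growth.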
# How the values were obtained:
# Assay in all cases: NCI anticancer screen, dose series, 48 h
# [1] = tested on: SNB-78 CNS
# [2] = tested on: XF 498 CNS
# [3] = tested on: RXF-631 renal
# [4] = tested on: DMS 273 small cell lung
# [5] = tested on: DLD-1 colon
# [6] = tested on: LXFL 529 NSCLC
# [7] = tested on: KM20L2 colon
# [8] = tested on: M19-MEL melanoma
# [9] = tested on: HOP-18 NSCLC
SMILES,TGI [1],TGI [2],TGI [3],TGI [4],TGI [5],TGI [6],TGI [7],TGI [8],TGI [9]
CC(C)(C)NC(=O)NC12CC3CC(CC(F)(C3)C1)C2,> 100 µM,> 100 µM,> 100 µM,> 100 µM,> 100 µM,> 100 µM,> 100 µM,> 100 µM,–
CN(CCO)c1nc(N)cc(=O)[nH]1,> 100 µM,> 100 µM,–,> 100 µM,> 100 µM,> 100 µM,> 100 µM,> 100 µM,> 100 µM
CCN(CC)CCCC(C)Nc1ccnc2ccc3nn(C)nc3c12 (configuration not stated),> 100 µM,–,–,91.5 µM,> 100 µM,> 100 µM,> 100 µM,> 100 µM,> 100 µM
NC(=O)c1coc(C2OC(CO)C(O)C2O)n1 (configuration not stated),> 100 µM,–,–,> 100 µM,–,> 100 µM,> 100 µM,> 100 µM,> 100 µM
Clc1ccccc1C1=NN(c2ccccc2)C2c3ccccc3OCC12 (configuration not stated),> 100 µM,> 100 µM,> 100 µM,> 100 µM,> 100 µM,> 100 µM,> 100 µM,> 100 µM,> 100 µM
CC(=O)c1ccc2c(ccc(=O)n2C)c1,–,> 100 µM,–,> 100 µM,> 100 µM,> 100 µM,> 100 µM,> 100 µM,> 100 µM
CCN1C[C@]2(C)CC[C@H](OC)C34C1C([C@H](OC(C)=O)[C@@H]32)[C@@]1(OC)C[C@H](OC)[C@H]2C[C@@H]4[C@@H]1[C@H]2O,> 100 µM,> 100 µM,–,> 100 µM,> 100 µM,> 100 µM,> 100 µM,> 100 µM,> 100 µM
COc1ccc(C2Oc3cc(OC)c(O)c(C)c3[C@H]2C)cc1 (some centres not stated),> 100 µM,–,–,> 100 µM,> 100 µM,> 100 µM,> 100 µM,> 100 µM,> 100 µM
c1ccc(C2=NOC3(c4ccccc4)SC4CCCCC4CN23)cc1 (configuration not stated),91.7 µM,> 100 µM,–,77.3 µM,> 100 µM,27 µM,> 100 µM,> 100 µM,> 100 µM
C=C1C(=O)OC2/C=C(/C)C3CC(O)C(C)(CC(OC(=O)/C(C)=C/C)C12)O3 (configuration not stated),7.7 µM,17.2 µM,–,8.8 µM,3.12 µM,5.84 µM,13.1 µM,9.57 µM,31.2 µM
CC1(C)OB(O)OC1(C)C,> 100 µM,> 100 µM,–,> 100 µM,> 100 µM,> 100 µM,> 100 µM,–,> 100 µM
CN(C)/N=C(/c1nc2ccc([N+](=O)[O-])cc2[nH]c1=O)C(O)c1ccco1 (configuration not stated),> 100 µM,> 100 µM,–,> 100 µM,> 100 µM,> 100 µM,> 100 µM,> 100 µM,–
O=c1[nH]c2cc([N+](=O)[O-])ccc2nc1/C(=N/Nc1ccccc1)C(O)c1ccc(C(O)/C(=N\Nc2ccccc2)c2cnc3cc([N+](=O)[O-])ccc3n2)cc1 (configuration not stated),–,–,–,–,–,–,> 100 µM,> 100 µM,–
